{"source": "paper PMC4992173", "about": "“Divergent synthesis and identification of the cellular targets of deoxyelephantopins” (Nature Communications, 2016)", "key": {"[1]": {"target": "T1, Thioredoxin domain-containing protein 12 (TXNDC12) (Homo sapiens, UniProt O95881)", "T1 construct": "endogenous in cells; host or cells: MCF7", "T1 sequence (O95881 27-172)": "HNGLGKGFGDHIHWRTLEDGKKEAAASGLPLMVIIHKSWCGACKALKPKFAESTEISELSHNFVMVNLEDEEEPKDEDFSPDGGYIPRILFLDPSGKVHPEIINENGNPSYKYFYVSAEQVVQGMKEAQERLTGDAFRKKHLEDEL", "test": "In situ competitive profiling in live MCF7 cells (LFQ): TXNDC12", "assay_type": "cell-based", "settings": "4 h, then 10 µM 24c, n=4", "description": "(§1) In our efforts to determine the direct molecular targets of deoxyelephantopin we first performed a gel-based competitive in situ proteomic profiling assay[41] […] While the greater conformational flexibility of probe 24c could potentially lead to more promiscuous target engagement relatively to deoxyelephantopin, it was favoured based on the fact that an alkyne moiety appended to the rigid scaffold of deoxyelephantopin may hinder some of its interactions. MCF7 cells were pretreated with various concentrations of deoxyelephantopin for 4 h, harvested, lysed and the lysates were treated with the fluorogenic probe 24c-Cy3 (10 μM; Supplementary Fig. 10). […] Furthermore, cells were pretreated with 20 μM concentration of deoxyelephantopin or 24c and the proteomic profiles were compared (Fig. 6b, Supplementary Fig. 11). Multiple bands were detected that were equally competed by both DEP and 24c, thus again confirming that 24c can be used as an acceptable clickable analogue of deoxyelephantopin in pulldown assays. Having established the optimal labelling conditions by SDS–PAGE, we next carried out a mass spectrometry-based competitive profiling assay[42] coupled with the method of stable isotope labelling of amino acids in culture (SILAC)[43]. […]\n(§2) Figure 6 Proteome-wide identification of deoxyelephantopin targets. […] Quantification was performed using label-free quantification (LFQ) method (n=4). […]"}, "Cystatin-B (CSTB)": {"target": "T2, Cystatin-B (CSTB) (Homo sapiens, UniProt P04080)", "T2 construct": "endogenous in cells; host or cells: MCF7", "T2 sequence (P04080 whole entry)": "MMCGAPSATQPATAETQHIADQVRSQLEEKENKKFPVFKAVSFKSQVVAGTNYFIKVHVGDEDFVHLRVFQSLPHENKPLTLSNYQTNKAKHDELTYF", "test": "In situ competitive profiling in live MCF7 cells (LFQ): CSTB", "assay_type": "cell-based", "settings": "protein CSTB, 4 h, then 10 µM 24c, n=4", "description": "as §1, §2"}}, "data": [{"smiles": "C=C(C)C(=O)O[C@H]1CC2=C[C@@H](C/C(C)=C/[C@H]3OC(=O)C(=C)[C@H]13)OC2=O", "note": "[deoxyelephantopin]", "values": [{"measurement": "LFQ ratio 20 µM Deoxyelephantopin/DMSO with 24c", "setting": "[1]", "value": 0.0425}, {"measurement": "LFQ ratio 20 µM Deoxyelephantopin/DMSO with 24c", "setting": "Cystatin-B (CSTB)", "value": 0.28}]}]}
